7 compounds from ChEMBL document CHEMBL5230110, “FabI (enoyl acyl carrier protein reductase) - A potential broad spectrum therapeutic target and its inhibitors” (Eur J Med Chem, 2020) can be followed below.

Values after ≈ are worked out from the molar mass of the structure shown.

In data set [1] the target is T1, Enoyl-[acyl-carrier-protein] reductase [NADPH] FabI (Staphylococcus aureus, UniProt Q6GI75).
T1 sequence (Q6GI75 whole entry): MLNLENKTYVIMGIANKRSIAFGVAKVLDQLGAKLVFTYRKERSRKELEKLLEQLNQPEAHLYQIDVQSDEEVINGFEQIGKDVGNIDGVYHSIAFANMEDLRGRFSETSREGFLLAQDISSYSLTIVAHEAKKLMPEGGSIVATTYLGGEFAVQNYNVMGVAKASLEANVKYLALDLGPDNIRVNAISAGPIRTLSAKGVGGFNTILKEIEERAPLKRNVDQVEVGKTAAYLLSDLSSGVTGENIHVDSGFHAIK
The experiment in a line: Inhibition of Staphylococcus aureus FabI in the presence of NADH using crotonyl CoA as substrate by measuring NADH consumption rate.

Data set [2] has as its target T2, Enoyl-[acyl-carrier-protein] reductase [NADH] FabI (Haemophilus influenzae (strain ATCC 51907 / DSM 11121 / KW20 / Rd), UniProt P44432).
T2 sequence (P44432 whole entry): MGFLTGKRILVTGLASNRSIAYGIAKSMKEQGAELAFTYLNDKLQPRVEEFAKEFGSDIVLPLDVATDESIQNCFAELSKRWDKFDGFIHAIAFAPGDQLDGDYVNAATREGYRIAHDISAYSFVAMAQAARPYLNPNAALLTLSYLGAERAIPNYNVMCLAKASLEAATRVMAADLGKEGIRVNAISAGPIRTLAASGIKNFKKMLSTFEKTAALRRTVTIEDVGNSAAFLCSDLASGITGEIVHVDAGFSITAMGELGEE
The experiment in a line: Inhibition of Haemophilus influenzae ATCC 51907 FabI assessed as by measuring NADH consumption rate.

Data set [3] has as its system Staphylococcus aureus. The experiment in a line: Antibacterial activity against Staphylococcus aureus ATCC 43300 assessed as reduction in microbial growth inhibition in presence of chloramphenicol. It counts as functional.
Data set [4] is described as follows: Cytotoxicity against African green monkey Vero cells assessed as reduction in cell viability measured after 72 hrs by coulter counter method. It counts as toxicity, cell-based. As to conditions: chlorocebus sabaeus.
Data set [5] concerns Escherichia coli. The experiment in a line: Antibacterial activity against Escherichia coli ATCC 35218 assessed as reduction in microbial growth inhibition. It counts as functional.
In data set [6] the test system is Staphylococcus aureus. The experiment in a line: Antibacterial activity against […] Staphylococcus aureus ATCC 29213 assessed as reduction in microbial growth inhibition. The format is functional.
In data set [7] the test system is Staphylococcus aureus. The experiment in a line: Antibacterial activity against Staphylococcus aureus ATCC 43300 assessed as reduction in microbial growth inhibition in presence of ceftazidime. It counts as functional.
The test system of data set [8] is Staphylococcus aureus. The experiment in a line: Antibacterial activity against Methicillin-resistant Staphylococcus aureus 5749 assessed as reduction in microbial growth inhibition. The format is functional.
In data set [9] the test system is Staphylococcus aureus. The experiment in a line: Antibacterial activity against Methicillin-resistant Staphylococcus aureus 5912 assessed as reduction in microbial growth inhibition. The format is functional.
The test system of data set [10] is Staphylococcus aureus. The experiment in a line: Antibacterial activity against Staphylococcus aureus ATCC 43300 assessed as reduction in microbial growth inhibition in presence of carbenicillin. It counts as functional.
Data set [11] has as its system Staphylococcus aureus. The experiment in a line: Antibacterial activity against Staphylococcus aureus ATCC 29213 assessed as reduction in microbial growth inhibition. The format is functional.
Data set [12] has as its system Staphylococcus aureus. The experiment in a line: Antibacterial activity against Staphylococcus aureus ATCC 43300 assessed as reduction in microbial growth inhibition. It counts as functional.
For data set [13], the system named is Staphylococcus aureus. The experiment in a line: Antibacterial activity against Staphylococcus aureus assessed as inhibition of bacterial growth measured after 24 hrs. The format is functional.
The target in data set [14] is T1, Enoyl-[acyl-carrier-protein] reductase [NADPH] FabI. The experiment in a line: Inhibition of Staphylococcus aureus FabI assessed as inhibition at 10 uM.
Data set [15] relates to Mycobacterium tuberculosis. The experiment in a line: Antimycobacterial activity against Mycobacterium tuberculosis ATCC 25618 extracellular forms assessed as inhibition of microbial growth. It counts as functional.
Data set [16] concerns Pseudomonas aeruginosa. The experiment in a line: Antibacterial activity against Pseudomonas aeruginosa assessed as bacterial growth inhibition. The format is functional.
Data set [17] in a line: Cytotoxicity against human HepG2 cells assessed as reduction in cell viability […] incubated for 48 hrs by MTT assay. It counts as toxicity, cell-based. Background: Tetrazolium dyes change colour on reduction, which living cells bring about.
Data set [18] concerns Mycobacterium tuberculosis. The experiment in a line: Antimycobacterial activity against Mycobacterium tuberculosis H37Rv assessed as reduction in bacterial growth incubated for 7 days by dye based assay. The note with it: 168 h, time 7 day. It counts as functional.
The nature of data set [19]: Selectivity index, ratio of CC50 for african green monkey Vero cells to CC50 for human HepG2 cells. It counts as toxicity. The note with it: Vero cells and HepG2 cells, read-out: Selectivity Index.
Data set [20] relates to Escherichia coli. The experiment in a line: Antibacterial activity against Escherichia coli assessed as bacterial growth inhibition. It counts as functional.
Data set [21] in a line: Cytotoxicity against African green monkey Vero cells assessed as reduction in cell viability by coulter counter method. As to conditions: chlorocebus sabaeus. It counts as toxicity, cell-based.
Data set [22] relates to Staphylococcus aureus. The experiment in a line: Antibacterial activity against Staphylococcus aureus assessed as bacterial growth inhibition. It counts as functional.
A short description of data set [23]: Inhibition of Bacillus anthracis enoyl ACP reductase assessed as inhibition of bacterial growth.
Data set [24] relates to Staphylococcus aureus. The experiment in a line: Bactericidal activity against methicillin-resistant Staphylococcus aureus measured after 24 hrs by sub-culturing. It counts as functional.
Data set [25] can be described thus: Cytotoxicity against mouse MH-S cells. It counts as functional, cell-based.
For data set [26], the system named is Bacillus anthracis. The experiment in a line: Antibacterial activity against Bacillus anthracis assessed as reduction in bacterial growth measured after 24 hrs by broth microdilution method. It counts as functional. Background: Broth dilution looks for growth in wells or tubes with falling amounts of substance.
For data set [27], the system named is Staphylococcus aureus. The experiment in a line: Bactericidal activity against methicillin-sensitive Staphylococcus aureus measured after 24 hrs by sub-culturing. The format is functional.
The subject of data set [28] is HeLa. The experiment in a line: Cytotoxicity against human HeLa cells assessed as inhibition of cell growth incubated for 48 hrs by CCK8 assay. The format is functional, cell-based.
The test system of data set [29] is Staphylococcus aureus. The experiment in a line: Antibacterial activity against methicillin resistant Staphylococcus aureus assessed as reduction in bacterial growth incubated for 12 hrs by microdilution method. It counts as functional.
The target in data set [30] is T3, Enoyl-[acyl-carrier-protein] reductase [NADH] (Mycobacterium tuberculosis, UniProt P9WGR1).
T3 sequence (P9WGR1 whole entry): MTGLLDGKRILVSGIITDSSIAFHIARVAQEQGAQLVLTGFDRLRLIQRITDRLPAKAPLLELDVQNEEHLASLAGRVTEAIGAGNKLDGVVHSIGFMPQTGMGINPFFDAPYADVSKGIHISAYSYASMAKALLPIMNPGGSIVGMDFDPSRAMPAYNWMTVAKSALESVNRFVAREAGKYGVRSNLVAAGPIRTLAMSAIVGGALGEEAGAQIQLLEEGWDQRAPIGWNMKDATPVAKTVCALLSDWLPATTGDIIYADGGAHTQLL
The experiment in a line: Inhibition of Mycobacterial tuberculosis ATCC 25618 FabI assessed as measuring NADH consumption rate.

Consider `Cc1c(CN(C)C(=O)/C=C/c2cnc3c(c2)CCC(=O)N3)c2ccccc2n1C`, for which the half-maximal inhibitory concentration (IC50) – broadly, the concentration at which inhibition is half-maximal – came out at 0.13 µM in data set [1] and 0.39 µM in data set [2].
Turning to `C[C@@H](Oc1cc(-c2cnn(C3CCNCC3)c2)cnc1N)c1c(Cl)ccc(F)c1Cl` [CRIZOTINIB], the MIC (in general, the least concentration at which growth counts as inhibited) in [3] turned out to be 2 µg/mL; in data set [5], 250 µM; in data set [6] it was 31.2 µM; in [7], 4 µg/mL; in data set [8], 125 µM; in data set [9], 15.6 µM. Also, the results for the MIC in data set [10], in data set [11] and in [12] were 2 µg/mL, 125 µM and 7.03 µg/mL, respectively. Moreover, in data set [4], the CC50 (commonly the concentration giving 50% cytotoxicity) at 72 h is 4.23 µM.
On to `CC(C)=CCc1c(O)ccc(C(=O)[C@H]2[C@@H](c3c(O)cc(-c4cc5ccc(O)cc5o4)cc3O)C=C(C)C[C@@H]2c2ccc(O)cc2O)c1O` [CHALCOMORACIN], for which, in data set [13], the minimal inhibitory concentration (MIC) is 4 µg/mL (≈ 6.17 µM). Moreover, the concentration for half-maximal inhibition (IC50) in [14] was found to be 5.5 µM.
For the compound `CC1(C)CCC(Cc2cc(O)c(-c3ccccc3)c(=O)[nH]2)CC1`, the MIC in data set [15] was 0.05 µM.
As for `Cc1ccc(C2=NCC(c3ccc(Oc4ccccc4)c(O)c3)C2)cc1` (stereo not given), the MIC in data set [16] is 18 µM (≈ 6.18 µg/mL); in data set [18], 18 µM (≈ 6.18 µg/mL); in data set [20] it was 18.2 µM (≈ 6.26 µg/mL); in data set [22], 9 µM (≈ 3.09 µg/mL). Moreover, the half-maximal cytotoxic concentration (CC50) at 48 h in data set [17] is above 596 µM. In addition, in [19], the selectivity ratio was above 10. For the same compound, the CC50 in data set [21] was above 646 µM.
In the case of `CCCc1ccc(Oc2ccc([N+](=O)[O-])cc2Cl)c(O)c1`, the half-maximal inhibitory concentration (IC50) in data set [23] turned out to be 0.5 µM. Moreover, the minimal bactericidal concentration (MBC) (usually the lowest tested concentration that kills the bacteria rather than only halting them) in data set [24] stood at 1.2 µg/mL (≈ 3.9 µM); in data set [27] it was 2.9 µg/mL (≈ 9.42 µM). Further, the 50% effective concentration (EC50) – broadly, the midpoint of the concentration-response curve – in data set [25] was determined as 22.6 µg/mL (≈ 73.4 µM); in data set [28], 41.1 µg/mL (≈ 134 µM). In addition, the MIC in data set [26] was 1.9 µg/mL (≈ 6.17 µM); in data set [29], 0.3 µg/mL (≈ 0.975 µM).
For `C=C1C(=O)OC[C@H]1C/C=C(\C)CC(=O)C=C(C)C`, the IC50 in data set [30] is 18.1 µM.
